As usually defined, the IC50 is the midpoint of a concentration-inhibition curve. A word on the Ki: it is a dissociation constant, usually derived from enzyme kinetics or from competition with a known ligand.

Experimental findings from patent publication EP4168396B1, “COMPOUNDS FOR THE TREATMENT OF NEURODEGENERATIVE DISEASES” (Universite De Franche Comte, priority 2020, dated 2021) are described below.

Each structure is given as a SMILES string.

The target of experiment [1] is T1, human recombinant acetylcholinesterase (hAChE) (Homo sapiens, UniProt P22303).
T1 construct: purchased Sigma-Aldrich
T1 sequence (P22303 32-614): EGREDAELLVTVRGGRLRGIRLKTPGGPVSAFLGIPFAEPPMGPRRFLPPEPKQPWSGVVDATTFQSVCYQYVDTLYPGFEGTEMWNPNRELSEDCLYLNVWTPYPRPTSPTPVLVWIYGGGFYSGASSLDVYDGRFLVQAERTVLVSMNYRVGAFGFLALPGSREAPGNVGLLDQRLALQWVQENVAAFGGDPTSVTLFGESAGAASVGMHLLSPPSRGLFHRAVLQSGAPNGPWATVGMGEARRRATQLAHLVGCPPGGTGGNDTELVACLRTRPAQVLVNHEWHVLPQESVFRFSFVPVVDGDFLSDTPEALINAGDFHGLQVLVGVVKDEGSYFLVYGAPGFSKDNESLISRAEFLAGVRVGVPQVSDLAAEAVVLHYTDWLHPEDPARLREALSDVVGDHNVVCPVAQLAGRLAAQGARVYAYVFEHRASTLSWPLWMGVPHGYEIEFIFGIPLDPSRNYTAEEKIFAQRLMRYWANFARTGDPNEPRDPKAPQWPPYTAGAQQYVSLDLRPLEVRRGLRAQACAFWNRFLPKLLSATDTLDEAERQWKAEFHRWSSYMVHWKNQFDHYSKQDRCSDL
Nature of the experiment: Cholinesterase inhibition assay (Ellman), hAChE. The settings on record: read-out: hAChE IC50. The experiment is classed as biochemical. Here is the method:
Inhibitory activities of the test compounds against the human cholinesterases were measured using the spectrophotometric method described by Ellman et al.^4, as modified for 96-well microplates. 5,5'-Dithiobis-(2-nitrobenzoic acid) (DTNB), acetylthiocholine iodide (ATC), butyrylthiocholine iodide (BTC), and human recombinant acetylcholinesterase (hAChE) were purchased from Sigma-Aldrich. Human butyrylcholinesterase (hBuChE) isolated from human plasma was from Vivonics (Bedford, MA, USA). […] In the first step of Ellman's method 25 µL of the test compound (or mixture DMSO/water in appropriate ratio; i.e. blank samples) was incubated in 0.1 M phosphate buffer (200 µL, pH= 8.0) with DTNB (20 µL; 0.0025M) and the enzyme (20 µL; hAChE or hBuChE) in temperature 36 °C. […] All compounds were tested at screening concentration of 10 µM. Percent of inhibition was calculated from 100-(S/B)×100, where S and B were the respective enzyme activities with and without the test sample, respectively. […] All reactions were performed in triplicate. The IC50 values were calculated using nonlinear regression (GraphPad Prism 5 [GraphPad Software, San Diego California USA 5.00]) by plotting the residual enzyme activities against the applied inhibitor concentration. Tacrine was used as a reference compound.
In general terms: DTNB colorimetry detects thiols as they appear.

A further experiment addresses T2, Human recombinant GSK-3β (Homo sapiens, UniProt P49841).
T2 construct: purchased Millipore (Millipore Iberica S.A.U.)
Briefly: GSK-3β inhibition in vitro assay (Kinase-Glo luminescence). In kind it is biochemical. The conditions noted are these: read-out: Gsk3β IC50. Here is the method:
Human recombinant GSK-3β, prephosphorylated polypeptide substrate and white 96-well plates were purchased from Millipore (Millipore Iberica S.A.U.). Kinase-Glo Luminescent Kinase Assay was obtained from Promega (Promega Biotech Iberica, SL). Adenosinetriphosphate (ATP) and all other reagents were from Sigma-Aldrich. Assay buffer contained 50 mM 4-(2-hydroxyethyl)-1- piperazineethanesulfonic acid (HEPES) (pH 7.5), 1 mM ethylenediaminetetraacetic acid (EDTA), 1 mM ethylene glycol tetraacetic acid (EGTA), and 15 mM magnesium acetate. The in solution experiments for GSK-3β inhibition analysis were performed by following the method developed by Baki et al.^18. In a typical assay, 10 µL of test compound (dissolved in DMSO at 1 mM concentration and diluted in advance in assay buffer to the desired concentration) and 10 µL (20 ng) of enzyme were added to each well in presence of 20 µL of assay buffer containing GSM substrate and ATP in order to reach a 25 µM and 1 µM final concentration respectively. […] After a 30 min incubation time at 30 °C, the enzymatic reaction was stopped by adding 40 µL of Kinase-Glo reagent. Glow-type luminescence was recorded after 10 min using a VictorX 3 PerkinElmer plate reader. […]. The linear regression parameters were determined and the IC50 extrapolated (GraphPad Prism 4.0, GraphPad Software Inc.).
For orientation: Kinase-Glo reads ATP consumption through a luciferase reaction.

Experiment [2] addresses T3, Human butyrylcholinesterase (hBuChE) (Homo sapiens, UniProt P06276).
T3 construct: Human butyrylcholinesterase (hBuChE) isolated from human plasma was from Vivonics; purchased Vivonics (Bedford, MA, USA); host or cells: human plasma
Nature of the experiment: Cholinesterase inhibition assay (Ellman), hBuChE. The experiment is classed as biochemical. Here is the method:
Inhibitory activities of the test compounds against the human cholinesterases were measured using the spectrophotometric method described by Ellman et al.^4, as modified for 96-well microplates. 5,5'-Dithiobis-(2-nitrobenzoic acid) (DTNB), acetylthiocholine iodide (ATC), butyrylthiocholine iodide (BTC), and human recombinant acetylcholinesterase (hAChE) were purchased from Sigma-Aldrich. Human butyrylcholinesterase (hBuChE) isolated from human plasma was from Vivonics (Bedford, MA, USA). […] The stock solutions of the test compounds were prepared by dissolving in DMSO to obtain a concentration of 0.0034M. They were further diluted in water to give appropriate concentration in a well. In the first step of Ellman's method 25 µL of the test compound (or mixture DMSO/water in appropriate ratio; i.e. blank samples) was incubated in 0.1 M phosphate buffer (200 µL, pH= 8.0) with DTNB (20 µL; 0.0025M) and the enzyme (20 µL; hAChE or hBuChE) in temperature 36 °C. […] All compounds were tested at screening concentration of 10 µM. Percent of inhibition was calculated from 100-(S/B)×100, where S and B were the respective enzyme activities with and without the test sample, respectively. […] All reactions were performed in triplicate. The IC50 values were calculated using nonlinear regression (GraphPad Prism 5 [GraphPad Software, San Diego California USA 5.00]) by plotting the residual enzyme activities against the applied inhibitor concentration. Tacrine was used as a reference compound.

Experiment [3] deals with voltage-gated Ca^2+ channels (VGCC). Briefly: Calcium channel antagonist assay (cytosolic Ca2+, Fluo-4). In kind it is cell-based. The settings on record: SH-SY5Y cells, K+ 70 mM. As for the experimental part:
The cytosolic Ca2+ has been measured in SH-SY5Y cells. SH-SY5Y cells were maintained similarly to what was previously described56. Free cytosolic Ca2+ was measured using the fluorescent Ca2+ indicator Fluo-4/AM (Fluo-4 acetomethoxyester). SH-SY5Y cells were seeded onto 96-well black plates at a density of 10^5 cells per well, achieving confluence after 48 h. Cells were washed with Krebs-Hepes solution (KH, in mM: 144 NaCl, 5.9 KCl, 1.2 MgCl2, 2 CaCl2, 11 D-glucose, 10 HEPES, pH 7.4). Cells were loaded with 10 µM Fluo-4/AM and 0.2% pluronic acid in KH and incubated for 45 min at 37 °C in the dark. Then, cells were washed twice with KH to remove the excess of probe. Tested compounds were incubated 10 min before K+ 70 mM was applied to evoke the increment of cytosolic Ca2+. To normalize Fluo-4 signals, Triton X-100 (5%) and 1 M MnCl2 were applied to register both maximal and minimal fluorescence, respectively. The experiments were analyzed at excitation and emission wavelengths of 485 and 520 nm, respectively, and fluorescence was measured in a fluorescence microplate reader (FLUOstar Optima, BMG, Germany). Data were calculated as a percentage of Fmax - Fmin.
The blocking effect of the depolarization-induced Ca^2+ uptake was investigated in SH-SY5Y neuroblastoma cells stimulated with an extracellular concentration of K^+ 70 mM, which induces the cell Ca^2+ levels elevation by opening voltage-gated Ca^2+ channels (VGCC), monitored with the Ca^2+-sensitive fluorescent dye Fluo-4. Nimodipine was used as positive standard.

The next experiment addresses T4, human H3 receptor (Homo sapiens, UniProt Q9Y5N1).
T4 construct: expressed in transfected cells; host or cells: CHO-K1
Briefly: H3 Receptor Binding Assay (radioligand binding). The settings on record: membranes from CHO-K1 cells, [3H]-N-α-methylhistamine 1.0 nM; read-out: H3R Ki [nM] ± SEM. As for the experimental part:
10 mM stock solutions of compounds to be tested were prepared in DMSO.
Radioligand binding was performed using membranes from CHO-K1 cells stably transfected with the human H3 receptor. All assays were carried out in duplicates. 50 µl working solution of the tested compounds, 50 µl [3H]-N-α-methylhistamine (spec. act. 82.9 Ci/mmol, final concentration 1.0 nM) and 150 µl diluted membranes (15 µg protein per well) prepared in assay buffer (50 mM Tris, pH 7.4, 5 mM MgCl2) were transferred to polypropylene 96-well microplate using 96-wells pipetting station Rainin Liquidator (MettlerToledo). […] Microplate was covered with a sealing tape, mixed and incubated for 60 minutes at 27°C. The reaction was terminated by rapid filtration through GF/B filter mate presoaked with 0.5% polyethyleneimine for 30 minutes. Five rapid washes with 300 µl 50 mM Tris buffer (4°C, pH 7.4) were performed using 96-well FilterMate harvester (PerkinElmer, USA). The filter mates were dried at 37°C in forced air fan incubator and then solid scintillator MeltiLex was melted on filter mates at 90°C for 4 minutes. Radioactivity was counted in MicroBeta2 scintillation counter (PerkinElmer). Data were fitted to a one-site curve-fitting equation with Prism 5 (GraphPad Software) and Ki values were estimated from the Cheng-Prusoff equation.

T3 sequence (P06276 29-602): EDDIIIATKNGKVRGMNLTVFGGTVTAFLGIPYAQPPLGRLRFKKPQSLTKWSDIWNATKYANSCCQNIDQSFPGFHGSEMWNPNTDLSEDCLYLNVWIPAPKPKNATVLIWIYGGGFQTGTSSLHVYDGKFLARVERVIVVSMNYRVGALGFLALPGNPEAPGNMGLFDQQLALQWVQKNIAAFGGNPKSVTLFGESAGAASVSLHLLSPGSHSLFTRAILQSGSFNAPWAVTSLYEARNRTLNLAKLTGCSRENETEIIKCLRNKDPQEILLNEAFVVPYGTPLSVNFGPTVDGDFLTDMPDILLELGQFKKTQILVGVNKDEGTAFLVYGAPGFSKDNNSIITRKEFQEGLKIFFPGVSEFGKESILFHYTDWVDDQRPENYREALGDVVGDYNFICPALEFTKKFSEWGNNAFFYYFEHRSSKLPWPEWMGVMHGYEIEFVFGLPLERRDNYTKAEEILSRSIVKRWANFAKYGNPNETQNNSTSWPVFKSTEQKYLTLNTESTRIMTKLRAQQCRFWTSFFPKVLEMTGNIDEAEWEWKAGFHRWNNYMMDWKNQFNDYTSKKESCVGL
T4 sequence (Q9Y5N1 whole entry): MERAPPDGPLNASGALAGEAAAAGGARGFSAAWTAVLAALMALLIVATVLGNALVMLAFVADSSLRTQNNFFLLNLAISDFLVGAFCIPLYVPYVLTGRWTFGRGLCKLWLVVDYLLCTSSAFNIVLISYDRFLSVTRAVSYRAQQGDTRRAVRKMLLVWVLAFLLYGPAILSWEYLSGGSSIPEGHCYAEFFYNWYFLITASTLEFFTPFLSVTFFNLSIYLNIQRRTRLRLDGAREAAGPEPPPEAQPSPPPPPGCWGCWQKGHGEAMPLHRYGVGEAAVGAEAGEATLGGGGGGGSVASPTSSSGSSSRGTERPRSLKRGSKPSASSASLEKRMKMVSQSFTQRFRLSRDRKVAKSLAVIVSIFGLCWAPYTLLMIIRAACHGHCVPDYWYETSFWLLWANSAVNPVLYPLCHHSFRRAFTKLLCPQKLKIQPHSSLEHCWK
T2 sequence (P49841 whole entry): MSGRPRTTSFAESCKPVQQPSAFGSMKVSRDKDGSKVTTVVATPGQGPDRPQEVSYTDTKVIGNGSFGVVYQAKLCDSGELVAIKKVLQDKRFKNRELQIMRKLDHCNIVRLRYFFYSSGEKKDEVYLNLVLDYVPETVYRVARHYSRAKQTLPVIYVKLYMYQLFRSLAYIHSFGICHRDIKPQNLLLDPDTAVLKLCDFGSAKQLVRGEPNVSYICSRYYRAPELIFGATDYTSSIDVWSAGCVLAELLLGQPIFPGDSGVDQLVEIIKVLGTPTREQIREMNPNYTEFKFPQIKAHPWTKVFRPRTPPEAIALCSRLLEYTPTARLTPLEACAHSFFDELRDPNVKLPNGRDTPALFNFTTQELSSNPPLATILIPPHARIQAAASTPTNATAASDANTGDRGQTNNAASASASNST

In the case of `CCOC(=O)C1=C(C)N(CCC2CCN(Cc3ccccc3)CC2)C(=O)NC1c1ccc(OCCCCCCN2CCCCC2)cc1` (centres unmarked) [BIGI-BIH-D8, Ethyl 1-(2-(1-benzylpiperidin-4-yl)ethyl)-6-methyl-2-oxo-4-(4-((6-(piperidin-1-yl)hexyl)oxy)phenyl)-1,2,3,4-tetrahydropyrimidine-5-carboxylate], the IC50 in experiment [1] is 86 ± 2 nM; at Human recombinant GSK-3β, 68200 nM; in experiment [2] it was 1250 ± 46 nM. The “Calcium Channel % inhibition at 10µM” value in experiment [3] was found to be 60%. Moreover, the Ki on human H3 receptor is 0.2 ± 0.02 nM.
